# Laboratory results taken from patent US11873298B2, “Compounds and uses thereof” (JANSSEN PHARMACEUTICA NV, priority 2017, dated 2024).
# How the values were obtained:
# Ole1 = target: T1, Ole1 (Saccharomyces cerevisiae, UniProt P21147); assay: Growth inhibition of yeast strain expressing Ole1 as sole desaturase; type: cell-based; settings: yeast strain expressing Ole1 as sole desaturase
# T1 construct: expressed in transfected cells; host or cells: S. cerevisiae ole1Δ strain (W303 pdr1Δ pdr3Δ background), plasmid pRS316 with TDH3 promoter and CYC1 terminator
# T1 sequence (P21147 1-510): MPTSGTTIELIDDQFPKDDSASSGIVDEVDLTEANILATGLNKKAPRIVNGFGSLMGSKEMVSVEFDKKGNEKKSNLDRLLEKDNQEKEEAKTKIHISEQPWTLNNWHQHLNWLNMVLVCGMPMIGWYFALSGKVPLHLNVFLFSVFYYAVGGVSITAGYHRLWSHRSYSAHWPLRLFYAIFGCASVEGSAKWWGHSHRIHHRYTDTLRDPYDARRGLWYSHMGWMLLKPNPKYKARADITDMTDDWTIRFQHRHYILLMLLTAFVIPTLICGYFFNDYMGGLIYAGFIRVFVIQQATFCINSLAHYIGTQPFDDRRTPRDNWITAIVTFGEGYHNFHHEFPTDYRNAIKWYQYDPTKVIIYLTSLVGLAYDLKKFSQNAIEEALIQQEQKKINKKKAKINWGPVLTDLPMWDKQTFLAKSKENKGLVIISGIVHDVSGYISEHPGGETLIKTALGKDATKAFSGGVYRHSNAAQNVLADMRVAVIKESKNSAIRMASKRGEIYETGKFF
# In short: (§1)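 Plasmid-complemented ole1Δ yeast, drug-pump deleted (pdr1Δ pdr3Δ), depend solely on the introduced Ole1, SCD1 or SCD5 desaturase. Compounds are added from DMSO to cells in uracil-free galactose medium, 2× density 0.02, and OD600 is read after 24 h or 40 h respectively.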
# SCD1 = target: T2, SCD1 (Homo sapiens, UniProt O00767); assay: Growth inhibition of humanized yeast strain expressing SCD1 as sole desaturase; type: cell-based; settings: humanized yeast strain expressing SCD1
# T2 construct: host or cells: S. cerevisiae ole1Δ strain (W303 pdr1Δ pdr3Δ background), plasmid pRS316 with TDH3 promoter and CYC1 terminator
# T2 sequence (O00767 1-359): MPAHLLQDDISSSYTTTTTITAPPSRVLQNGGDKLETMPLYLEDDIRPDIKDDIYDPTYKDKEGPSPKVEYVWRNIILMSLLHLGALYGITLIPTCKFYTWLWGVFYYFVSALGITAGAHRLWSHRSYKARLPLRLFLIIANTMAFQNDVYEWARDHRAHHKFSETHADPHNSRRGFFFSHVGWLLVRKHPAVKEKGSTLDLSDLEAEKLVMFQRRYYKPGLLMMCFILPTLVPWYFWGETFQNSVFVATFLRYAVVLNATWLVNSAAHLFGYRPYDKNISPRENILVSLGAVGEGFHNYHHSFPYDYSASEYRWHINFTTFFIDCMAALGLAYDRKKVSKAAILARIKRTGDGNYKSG
# In short: as §1
# SCD5 = target: T3, SCD5 (Homo sapiens, UniProt Q86SK9); assay: Growth inhibition of humanized yeast strain expressing SCD5 as sole desaturase; type: cell-based; settings: humanized yeast strain expressing SCD5
# T3 construct: host or cells: S. cerevisiae ole1Δ strain (W303 pdr1Δ pdr3Δ background), plasmid pRS316 with TDH3 promoter and CYC1 terminator
# T3 sequence (Q86SK9 1-330): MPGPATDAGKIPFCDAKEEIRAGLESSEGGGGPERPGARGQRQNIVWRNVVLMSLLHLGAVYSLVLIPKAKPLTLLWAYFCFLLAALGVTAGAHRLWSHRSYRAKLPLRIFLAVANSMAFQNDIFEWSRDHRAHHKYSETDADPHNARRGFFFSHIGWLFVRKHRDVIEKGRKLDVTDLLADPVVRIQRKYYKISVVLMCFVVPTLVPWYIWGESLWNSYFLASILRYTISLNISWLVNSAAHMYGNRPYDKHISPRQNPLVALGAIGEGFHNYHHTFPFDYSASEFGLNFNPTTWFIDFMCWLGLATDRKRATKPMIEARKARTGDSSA
# In short: as §1
# [1] = test system: yeast strains expressing the human α-synuclein; assay: Yeast α-synuclein toxicity rescue assay (OD600 growth); settings: 40 h; for EC50: read-out: α-Syn EC50; for Emax: read-out: α-Syn Emax
Compound,IC50 (Ole1) [µM],OLE1 % Max Inhibition (Ole1) [%],IC50 (SCD1) [µM],SCD1 % Max Inhibition (SCD1) [%],IC50 (SCD5) [µM],SCD5 % Max Inhibition (SCD5) [%],EC50 [1] [µM],Emax [1] [%]
Cc1nnc(C)c2cc(-c3noc(C4CCN(C(=O)CNC(=O)c5ccccc5)CC4)n3)ccc12 [Compound 105],> 45,34.19,> 45,41.38,> 45,13.93,3.18,391
CCOc1ccc(-c2noc(C3CCN(C(=O)CN4Cc5ccccc5C4=O)CC3)n2)cc1OC [Compound 106],> 45,35.35,> 45,78.19,> 45,71.22,0.1,415
CCOc1ccc(-c2noc(C3CCN(C(=O)CNC(=O)c4ccccc4)CC3)n2)nc1OC [Compound 107],> 45,4.55,> 45,73.32,> 45,74.80,2.9,312
CCOc1ccc(-c2noc(C3CCN(C(=O)C4CC(=O)N(c5ccccc5)C4)CC3)n2)nc1OC (centres unmarked) [Compound 108],> 45,72.04,> 45,72.79,> 45,64.66,11.1,316
O=C(NCC(=O)N1CCC(c2nc(-c3ccc4c(c3)OC(F)(F)O4)no2)CC1)c1ccccc1 [Compound 109],> 45,87.87,> 45,84.36,> 45,89.75,3.04,35
CCN1CCOc2cc(-c3noc(C4CCN(C(=O)CNC(=O)c5ccccc5)CC4)n3)ccc21 [Compound 110],> 45,96.31,> 45,66.85,> 45,65.07,4.49,374
CCN1C(=O)COc2cc(-c3noc(C4CCN(C(=O)CNC(=O)c5ccccc5)CC4)n3)ccc21 [Compound 111],> 45,38.26,> 45,76.39,> 45,32.73,0.339,289
CCOc1ccc(-c2noc(N3CCC(C(=O)N4CCOC(c5ccccc5)C4)CC3)n2)cc1OC (centres unmarked) [Compound 112],> 45,3.16,> 45,66.76,> 45,21.21,0.32,258
CCOc1ccc(-c2noc(N3CCC(C(=O)N4CCN(C)C(c5ccccc5)C4)CC3)n2)cc1OC (centres unmarked) [Compound 113],> 45,5.55,40.7,55.33,> 45,27.28,15.6,55
Cc1nn(C)c2cc(-c3noc(C4CCN(C(=O)CNC(=O)c5ccccc5)CC4)n3)ncc12 [Compound 114],> 45,90.17,> 45,74.54,> 45,77.66,17.3,373
Cc1nn(C)c2nc(-c3noc(C4CCN(C(=O)CNC(=O)c5ccccc5)CC4)n3)ccc12 [Compound 115],> 45,101.68,> 45,77.36,> 45,77.85,0.887,326
Cc1nn(C)c2nc(-c3noc(C4CCN(C(=O)C5CC(=O)N(c6ccccc6)C5)CC4)n3)ccc12 (centres unmarked) [Compound 116],> 45,12.75,> 45,71.12,> 45,8.35,9.04,345
Cc1nn(C)c2ccc(-c3noc(C4CCN(C(=O)N5CCCCC5)CC4)n3)cc12 [Compound 117],> 45,92.97,> 45,95.94,36.1,54.63,7.5,124
CCOc1cnc(-c2noc(C3CCN(C(=O)C4CC(=O)N(c5ccccc5)C4)CC3)n2)cc1OC (centres unmarked) [Compound 118],> 45,87.29,> 45,93.37,27.5,32.21,15.7,65
CCOc1ccc(-c2noc(C3CCN(C(=O)[C@H]4CC[C@H](c5ccccc5)N4)CC3)n2)cc1OC [Compound 119],> 45,111.86,> 45,86.22,> 45,93.93,20.9,61
Cc1nn(C)c2cc(-c3noc(C4CCN(C(=O)C5CC(=O)N(c6ccccc6)C5)CC4)n3)ncc12 (centres unmarked) [Compound 120],> 45,119.08,> 45,99.80,> 45,96.39,19.5,139
CCOc1cnc(-c2noc(C3CCN(C(=O)CNC(=O)c4ccccc4)CC3)n2)cc1OC [Compound 121],> 45,111.12,> 45,94.06,> 45,98.38,15.5,388
Cn1c(=O)n(C)c2cc(-c3noc(C4CCN(C(=O)CNC(=O)c5ccccc5)CC4)n3)ccc21 [Compound 122],> 45,109.89,> 45,92.73,> 45,90.04,0.139,414
Cn1c(=O)n(C)c2cc(-c3noc(C4CCN(C(=O)C5CC(=O)N(c6ccccc6)C5)CC4)n3)ccc21 (centres unmarked) [Compound 123],> 45,3.12,> 45,73.59,> 45,9.69,0.069,343
COc1ccc(CN2CC(C(=O)N3CCC(c4nc(-c5ccc6c(C)nn(C)c6c5)no4)CC3)CC2=O)c(OC)c1 (centres unmarked) [Compound 124],> 45,4.55,> 45,88.87,> 45,96.23,17.7,395
COc1ccc(-c2noc(C3CCN(C(=O)C4CC(=O)N(C5CCCCC5)C4)CC3)n2)cc1OC (centres unmarked) [Compound 125],> 45,92.36,> 45,77.68,> 45,94.83,16.7,200
COc1ccc(-c2noc(C3CCN(C(=O)c4ccc(C(C)C)cc4)CC3)n2)cc1OC [Compound 127],> 45,99.27,> 45,66.46,> 45,88.59,7.42,349
